Experimental data from US5554789A, “Arylpropionic derivative, a process for the preparation and the use thereof as an analgesic agent” (Laboratorios Menarini S.A., priority 1992, dated 1996).
Counter-ions that a name gives are not always drawn. Like-named read-outs stand apart in the source and are kept apart here.

What was measured:
Swiss male mice = assay: Phenylbenzoquinone writhing test (analgesic activity); format: in vivo
[1] = cited from earlier work
Hygroscopicity = format: physicochemical
pH in aqueous solution = format: physicochemical
[2] = Analgesic action (general statements); format: in vivo
[3] = Toxicity (general statement); details: compared with the other derivatives
[4] = Plasmatic levels of the (+)-(S) enantiomer in humans; details: vs (+)-(S)-ketoprofen free acid or double dose of racemic ketoprofen free acid
[5] = Gastrolesive effect in animals
[6] = Dissolution rate in water; format: physicochemical; details: compared with compound (I)
[7] = background; cited from earlier work

In the case of CC(C(=O)O)c1cccc(C(=O)c2ccccc2)c1 (racemic) [(R,S)-ketoprofen tromethamine salt], the “% Inhibition (analgesic effect, phenylbenzoquinone test)” value (Swiss male mice; intravenously, 0.30 mg/kg (amount of ketoprofen injected)) is reported as 62.9 ± 11.7%.

In the case of CC(C(=O)O)c1cccc(C(=O)c2ccccc2)c1 (racemic) [(R,S)-ketoprofen, 2-(3-Benzoylphenyl)propionic acid], the “analgesic and antipyretic action” value ([1]; background) is listed as “potent analgesic and antipyretic action” and the “% Inhibition (analgesic effect, phenylbenzoquinone test)” value (Swiss male mice; orally, 30 minutes prior to phenylbenzoquinone, 0.30 mg/kg) is listed as 50.0 ± 7.8%.

In the case of C[C@H](C(=O)O)c1cccc(C(=O)c2ccccc2)c1 [(+)-(S)-ketoprofen, (+)-(S)-2-(3-benzoylphenyl)propionic acid], the analgesic action ([1]; vs the racemic, administered doses being equal) is listed as “faster acting and more potent analgesic than the racemic”.

In the case of C[C@H](C(=O)O)c1cccc(C(=O)c2ccccc2)c1 [I, (+)-(S)-2-(3-benzoylphenyl)propionic acid tromethamine salt], the “analgesic effectiveness compared with racemic ketoprofen” value (Swiss male mice; phenylbenzoquinone writhing test, intravenous and oral) is reported as “same analgesic effectiveness as a racemic ketoprofen double dose”, the hygroscopicity (Hygroscopicity) is reported as “very low hygroscopicity” and the “pH in aqueous solution” value (pH in aqueous solution) is reported as “physiologically compatible pH in aqueous solution”. For the same compound, the “analgesic action (onset, response, duration)” value ([2]; vs racemic ketoprofen) was “faster onset of analgesic action, an enhanced analgesic response and a longer duration than racemic ketoprofen”, the “analgesic action and response” value ([2]; vs racemic ketoprofen tromethamine salt) was “faster action and enhanced analgesic response than the racemic ketoprofen tromethamine salt” and the toxicity [3] was “lower toxicity”. The “plasmatic levels of the active (+)-(S) enantiomer” value [4] was “higher plasmatic levels of the active (+)-(S) enantiomer in a far shorter time”, the gastrolesive effect ([5]; animals, vs (+)-(S)-, (-)-(R)- and racemic ketoprofen) was “much less gastrolesive” and the gastrolesive effect ([5]; vs corresponding free acid or racemic ketoprofen) was “markedly less gastrolesive than the corresponding free acid or the racemic ketoprofen”.

With C[C@H](C(=O)O)c1cccc(C(=O)c2ccccc2)c1 [L-lysine salt] the dissolution rate [6] was “significantly lower”.

For CC(C(=O)O)c1cccc(C(=O)c2ccccc2)c1 (stereo not drawn) [sodium salt], the hygroscopicity [7] is listed as “high hygroscopicity”.
